Test system: KRAS patient-derived spheroids with HUVEC/MSC, viability
Assay: Anticancer human tumor 323965-272-R-J2-PDC patient-derived pancreatic carcinoma cell line growth inhibition [KRAS2]
Conditions: for IC50: curve of first compound; for viability, T/C: stronger effect = lower value
Description: Multicellular complex tumor spheroid response to RAS pathway inhibitors in combination with a targeted agents in patient-derived cell lines with oncogenic KRAS variants from multiple cancer types
A high-throughput screen of multi-cell type tumor spheroids was designed to identify active combinations of targeted small molecules and KRAS pathway inhibitors. Complex spheroids include a stromal component modeled by human endothelial cells (HUVEC) and fibroblasts modeled by human mesenchymal stem cells (MSCs). The concentration ranges selected for each drug and investigational agent were based upon clinically achievable concentrations if the clinical Cmax of the agent was known.
Compounds. The drugs and investigational agents: BI-3406 (NSC825286), BAY-293 (NSC824723), batoprotafib (TNO155; NSC825523), sotorasib (AMG 510; NSC818433), MRTX1257 (NSC819558), elimusertib (BAY 1895344; NSC800525), molibresib (GSK525762; NSC774829), temuterkib (LY3214996; NSC803410), venetoclax (NSC766270), alisertib (NSC759677), olaparib (NSC753686), talazoparib (NSC767125), erdafitinib (NSC781556), ipatasertib (NSC767898), cabozantinib (NSC761068), nintedanib (NSC756659), abemaciclib (NSC768073), docetaxel (NSC628503), trametinib (NSC758246), and sapanisertib (NSC764658) were obtained from the National Cancer Institute (NCI) Developmental Therapeutics Program Chemical Repository. The FDA-approved anticancer drug set is available from the Developmental Therapeutics Program. […] The stock solutions were prepared in dimethyl sulfoxide (DMSO, Sigma-Aldrich, St. Louis, MO, cat. D2650) at 800-fold the tested concentration and stored at -70 degrees C prior to their use. All drugs and investigational agents were tested over a range starting from a high concentration at or near the clinical Cmax and decreasing in half-log increments. If the clinical Cmax for an agent had not been determined, the highest concentration tested was 10 microM.
Cell Culture. All cells were maintained in an incubator at 37 degrees C and 5% CO2 with 95% humidity. The PDC lines were cultured according to standard operating procedures established by the NCI PDMR (https://pdmr.cancer.gov/sops/default.htm). Briefly, all PDCs were thawed and cultured in Matrigel-coated flasks prepared with a working solution of 1X Ham's F-12 nutrient mix, without supplementation (Invitrogen, Waltham, MA, cat. 11765054), 100 U/mL penicillin-streptomycin (Invitrogen, cat. 15140122), and 2.5% Matrigel (Corning Inc., Corning, NY, cat. 354248) for the first three passages. All PDCs were cultured in complete DMEM/F-12 media containing advanced DMEM/F-12 (Invitrogen, cat. 12634028), 4.9% defined fetal bovine serum, heat inactivated (HyClone Laboratories Inc., Logan, UT, cat. SH30070.03HI), 389 ng/mL hydrocortisone (Sigma-Aldrich, cat. H4001), 9.7 ng/mL human EGF recombinant protein (Invitrogen, cat. PHG0313), 23.4 microg/mL adenine (Sigma-Aldrich, cat. A2786), 97.3 U/mL penicillin-streptomycin (Invitrogen, cat. 15140122), 1.9 mM L-glutamine (Invitrogen, cat. 25030081), and 9.7 microM Y-27632 dihydrochloride (Tocris Bioscience, Bristol, United Kingdom, cat. 1254). The PDCs were cultured in complete DMEM/F12 media without 9.7 microM Y-27632 dihydrochloride for at least two passages prior to the screen. The established cell line HOP-62 was cultured in RPMI 1640 medium, HEPES (Invitrogen, cat. 22400105) with 10% defined fetal bovine serum (HyClone Laboratories Inc., cat. SH30070.03) and 2 mM L-glutamine (Invitrogen, cat. 25030081). The pooled donor HUVEC were cultured in endothelial cell growth medium 2 (PromoCell, Heidelberg, Germany, cat. C-22011) and the hMSC were cultured in mesenchymal stem cell growth medium 2 (PromoCell, cat. C-28009). For all experiments, HUVEC and hMSC were used at passages </=5, while the malignant cell lines were used at passages </=15. […]

[1] = second compound 0.1 µM, first compound 0.01 µM
[2] = second compound 0.1 µM, first compound 0.0316 µM
[3] = second compound 0.1 µM, first compound 0.1 µM
[4] = second compound 0.316 µM, first compound 0.01 µM
[5] = second compound 0.316 µM, first compound 0.0316 µM
[6] = second compound 0.316 µM, first compound 0.1 µM
[7] = second compound 1 µM, first compound 0.01 µM
[8] = second compound 1 µM, first compound 0.0316 µM
[9] = second compound 1 µM, first compound 0.1 µM
[10] = second compound 3.16 µM, first compound 0.01 µM
[11] = second compound 3.16 µM, first compound 0.0316 µM
[12] = second compound 3.16 µM, first compound 0.1 µM
[13] = second compound 10 µM, first compound 0.01 µM
[14] = second compound 10 µM, first compound 0.0316 µM
[15] = second compound 10 µM, first compound 0.1 µM
[16] = second compound 0.1 µM, first compound 0.316 µM
[17] = second compound 0.1 µM, first compound 1 µM
[18] = second compound 0.1 µM, first compound 3.16 µM
[19] = second compound 0.316 µM, first compound 0.316 µM
[20] = second compound 0.316 µM, first compound 1 µM
[21] = second compound 0.316 µM, first compound 3.16 µM
[22] = second compound 1 µM, first compound 0.316 µM
[23] = second compound 1 µM, first compound 1 µM
[24] = second compound 1 µM, first compound 3.16 µM
[25] = second compound 3.16 µM, first compound 0.316 µM
[26] = second compound 3.16 µM, first compound 1 µM
[27] = second compound 3.16 µM, first compound 3.16 µM
[28] = second compound 10 µM, first compound 0.316 µM
[29] = second compound 10 µM, first compound 1 µM
[30] = second compound 10 µM, first compound 3.16 µM
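Further: spheroids exposed to agents for 7 days.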
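Wherever viability, T/C is given: 100% = DMSO vehicle control viability.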

| SMILES | IC50 (second compound 0.1 µM) [nM] | IC50 (second compound 0.316 µM) [nM] | IC50 (second compound 1 µM) [nM] | IC50 (second compound 3.16 µM) [nM] | IC50 (second compound 10 µM) [nM] | viability, T/C [1] [%] | viability, T/C [2] [%] | viability, T/C [3] [%] | viability, T/C [4] [%] | viability, T/C [5] [%] | viability, T/C [6] [%] | viability, T/C [7] [%] | viability, T/C [8] [%] | viability, T/C [9] [%] | viability, T/C [10] [%] | viability, T/C [11] [%] | viability, T/C [12] [%] | viability, T/C [13] [%] | viability, T/C [14] [%] | viability, T/C [15] [%] | other results |
| --- | --- | --- | --- | --- | --- | --- | --- | --- | --- | --- | --- | --- | --- | --- | --- | --- | --- | --- | --- | --- | --- |
| CN(C)C/C=C/C(=O)Nc1cc2c(Nc3ccc(F)c(Cl)c3)ncnc2cc1O[C@H]1CCOC1 + C=CC(=O)N1CCN(c2nc(=O)n(-c3c(C)ccnc3C(C)C)c3nc(-c4c(O)cccc4F)c(F)cc23)C(C)C1 | 6.19 | 1.29 | 1.87 | 4.24 | 1.48 | 57.7 | 43.1 | 44 | 42.4 | 41.8 | 40.5 | 41.3 | 37.8 | 44.6 | 48 | 40.5 | 42.5 | 45.6 | 45.7 | 43.5 | viability, T/C (second compound 0.1 µM, first compound 0.000316 µM): 63.3%; viability, T/C (second compound 0.1 µM, first compound 0.001 µM): 50.9%; viability, T/C (second compound 0.1 µM, first compound 0.00316 µM): 49.6%; viability, T/C (second compound 0.316 µM, first compound 0.000316 µM): 61.3%; viability, T/C (second compound 0.316 µM, first compound 0.001 µM): 50%; viability, T/C (second compound 0.316 µM, first compound 0.00316 µM): 47.3%; viability, T/C (second compound 1 µM, first compound 0.000316 µM): 58.6%; viability, T/C (second compound 1 µM, first compound 0.001 µM): 54.2%; viability, T/C (second compound 1 µM, first compound 0.00316 µM): 50.5%; viability, T/C (second compound 3.16 µM, first compound 0.000316 µM): 58.1%; viability, T/C (second compound 3.16 µM, first compound 0.001 µM): 58%; viability, T/C (second compound 3.16 µM, first compound 0.00316 µM): 50.1%; viability, T/C (second compound 10 µM, first compound 0.000316 µM): 62.2%; viability, T/C (second compound 10 µM, first compound 0.001 µM): 53%; viability, T/C (second compound 10 µM, first compound 0.00316 µM): 44.6% |
| CC1COCCN1c1cc(-c2ccnn2C)c2ccnc(-c3ccn[nH]3)c2n1 (stereo not given) + CC1OCC2(CCN(c3cnc(Sc4ccnc(N)c4Cl)c(N)n3)CC2)C1N | 15.3 | < 10 | < 10 | < 10 | < 10 | 60.7 | 32.2 | 17.7 | 43.1 | 23.2 | 12.3 | 35.1 | 13 | 7.36 | 13.3 | 7.07 | 4.72 | 7.99 | 5.12 | 4.05 | viability, T/C [16]: 15%; viability, T/C [17]: 13.5%; viability, T/C [18]: 12.9%; viability, T/C [19]: 10.7%; viability, T/C [20]: 10.5%; viability, T/C [21]: 9.88%; viability, T/C [22]: 6.29%; viability, T/C [23]: 5.53%; viability, T/C [24]: 3.23%; viability, T/C [25]: 4.25%; viability, T/C [26]: 2.21%; viability, T/C [27]: 2.21%; viability, T/C [28]: 3.27%; viability, T/C [29]: 1.9%; viability, T/C [30]: 1.31% |
| Cn1nccc1Nc1nccc(-c2cc3c(s2)C(C)(C)N(CCN2CCOCC2)C3=O)n1 + COc1cc2nc(C)nc(NC(C)c3cc(N)cc(C(F)(F)F)c3)c2cc1OC1CCOC1 | 343 | 258 | 188 | 324 | 358 | – | 70.7 | 76.1 | – | 75.3 | 61.8 | – | 65.9 | 57.8 | – | 70.7 | 68.1 | – | 75.5 | 66.9 | viability, T/C [16]: 50.3%; viability, T/C [17]: 38.7%; viability, T/C [18]: 30.8%; viability, T/C (second compound 0.1 µM, first compound 10 µM): 29.9%; viability, T/C [19]: 48.1%; viability, T/C [20]: 34.8%; viability, T/C [21]: 30.6%; viability, T/C (second compound 0.316 µM, first compound 10 µM): 26.1%; viability, T/C [22]: 43%; viability, T/C [23]: 35.6%; viability, T/C [24]: 30%; viability, T/C (second compound 1 µM, first compound 10 µM): 27.4%; viability, T/C [25]: 46.3%; viability, T/C [26]: 38%; viability, T/C [27]: 29.1%; viability, T/C (second compound 3.16 µM, first compound 10 µM): 22.6%; viability, T/C [28]: 51.7%; viability, T/C [29]: 36.7%; viability, T/C [30]: 22.7%; viability, T/C (second compound 10 µM, first compound 10 µM): 24.9% |
